Experimental data as given in ChEMBL document CHEMBL3860083, “Tautomeric and non-tautomeric N-substituted 2-iminobenzimidazolines as new lead compounds for the design of anti-influenza drugs: An in vitro study” (Bioorg Med Chem, 2016).

Key:
[1] = Antiviral activity against Influenza A virus (A/California/07/09(H1N1))pdm09 infected in MDCK cells assessed as decrease in virus production preincubated for 1 hr with cells followed by viral infection measured after 24 hrs by hemagglutination assay; assay type: functional, cell-based, Influenza A virus (A/California/07/2009(H1N1))
[2] = Selectivity index, ratio of CC50 for MDCK cells to IC50 for Influenza A virus (A/California/07/09(H1N1)) pdm09; assay type: functional
[3] = Cytotoxicity against MDCK cells assessed as increase in cell death after 48 hrs by MTT assay; assay type: toxicity, cell-based, Canis lupus familiaris; conditions: dog
Sabia virus = assay: Antiviral activity against Sabia virus; assay type: functional
Machupo mammarenavirus = assay: Antiviral activity against Machupo virus; assay type: functional; conditions: Mammarenavirus machupoense
Junin virus = assay: Antiviral activity against Junin virus; assay type: functional; conditions: Mammarenavirus juninense
Guanarito virus = assay: Antiviral activity against Guanarito virus; assay type: functional; conditions: Mammarenavirus guanaritoense
Lassa virus = assay: Antiviral activity against Lassa virus; assay type: functional; conditions: Mammarenavirus lassaense

| SMILES | IC50 [1] [µM] | Ratio CC50/IC50 [2] | CC50 at 48 h [3] [µM] | IC50 (Sabia virus) [µM] | IC50 (Machupo mammarenavirus) [µM] | IC50 (Junin virus) [µM] | IC50 (Guanarito virus) [µM] | IC50 (Lassa virus) [µM] |
| --- | --- | --- | --- | --- | --- | --- | --- | --- |
| Cl.N=c1n(CC(N)=O)c2ccccc2n1Cc1ccc(Cl)c(Cl)c1 | 7 | 28 | 196 | – | – | – | – | – |
| Br.Cc1ccc(OCCn2c(=N)n(Cc3ccc(Cl)c(Cl)c3)c3ccccc32)cc1 | 0.6 | 11 | 13.2 | – | – | – | – | – |
| O=C(Nc1nc2ccccc2n1CCOc1ccc(Cl)cc1)c1ccco1 | 57.6 | 6 | 346 | – | – | – | – | – |
| Cc1ccccc1OCCn1/c(=N/C(=O)c2cccs2)[nH]c2ccccc21 | 33.2 | 5 | 159 | – | – | – | – | – |
| Br.C=CCn1c(=N)n(CCOc2ccc(C(C)(C)C)cc2)c2ccccc21 | 1.6 | 8 | 12.8 | – | – | – | – | – |
| COc1ccc(OCCn2/c(=N/C(=O)c3cccs3)[nH]c3ccccc32)cc1 | 450 | >6 | > 2540 | – | – | – | – | – |
| O=C(/N=c1\[nH]c2ccccc2n1CCOc1ccc(Cl)cc1)c1cccs1 | 297 | 8 | 2240 | – | – | – | – | – |
| Cl.N=c1n(CCO)c2ccccc2n1Cc1ccc(Cl)c(Cl)c1 | 2.4 | 83 | 202 | – | – | – | – | – |
| Br.C=CCn1c(=N)n(CCCOc2ccc(F)cc2)c2ccccc21 | 9.9 | 8 | 80.1 | – | – | – | – | – |
| CC(C)(C)c1ccc(OCCn2c(=N)n(CC(N)=O)c3ccccc32)cc1.Cl | 27.5 | 5 | 151 | – | – | – | – | – |
| O=C(/N=c1\[nH]c2ccccc2n1CCOc1ccc(F)cc1)c1ccc(Cl)cc1 | 112 | >7 | > 732 | – | – | – | – | – |
| S=C(Nc1ccccc1)Nc1nc2ccccc2n1CCOc1ccccc1 | 25.8 | 1 | 25.8 | – | – | – | – | – |
| O=C(/N=c1\[nH]c2ccccc2n1CCOc1ccc(Br)cc1)c1cccs1 | 317 | >7 | > 2260 | – | – | – | – | – |
| O=C(Nc1nc2ccccc2n1CCOc1ccccc1)c1ccco1 | 42.9 | 50 | 2160 | – | – | – | – | – |
| O=C(/N=c1\[nH]c2ccccc2n1CCOc1ccc(F)cc1)c1ccc([N+](=O)[O-])cc1 | 543 | >5 | > 2550 | – | – | – | – | – |
| Cl.N=c1n(CCOc2ccc(F)cc2)c2ccccc2n1CC(N)=O | 54.8 | 23 | 1260 | – | – | – | – | – |
| Cl.N=c1n(CO)c2ccccc2n1CCOc1ccc(Cl)cc1 | 4.6 | 9 | 40.8 | – | – | – | – | – |
| Cl.N=c1n(Cc2ccc(F)cc2)c2ccccc2n1Cc1ccc(Cl)c(Cl)c1 | 4.5 | 5 | 21.8 | – | – | – | – | – |
| COc1ccc(-n2cnc3cc(NCc4ccc(C)cc4)ccc32)cc1 | – | – | – | 0.0002 to 0.012 | 0.0002 to 0.012 | 0.0002 to 0.012 | 0.0002 to 0.012 | 0.0016 |
| O=C(/N=c1\[nH]c2ccccc2n1CCOc1cccc(Cl)c1)c1ccco1 | 13.1 | 63 | 820 | – | – | – | – | – |
| Cc1ccc(OCCn2c(=N)n(CC(N)=O)c3ccccc32)cc1.Cl | 35.8 | 9 | 309 | – | – | – | – | – |
| S=C(Nc1ccccc1)Nc1nc2ccccc2n1CCOc1ccc(Br)cc1 | > 21.4 | <1 | 20.3 | – | – | – | – | – |
| CC(C)(C)c1ccc(C(=O)/N=c2\[nH]c3ccccc3n2CCOc2ccc(Br)cc2)cc1 | 37.4 | 54 | 2030 | – | – | – | – | – |
